Measurements: ChEMBL document CHEMBL1133123 (J Med Chem, 2000)

Assays:
[1] = target: T1, Alpha-2B adrenergic receptor (Homo sapiens, UniProt P18089); experiment: Binding affinity towards Alpha-2B adrenergic receptor
T1 sequence (P18089 whole entry): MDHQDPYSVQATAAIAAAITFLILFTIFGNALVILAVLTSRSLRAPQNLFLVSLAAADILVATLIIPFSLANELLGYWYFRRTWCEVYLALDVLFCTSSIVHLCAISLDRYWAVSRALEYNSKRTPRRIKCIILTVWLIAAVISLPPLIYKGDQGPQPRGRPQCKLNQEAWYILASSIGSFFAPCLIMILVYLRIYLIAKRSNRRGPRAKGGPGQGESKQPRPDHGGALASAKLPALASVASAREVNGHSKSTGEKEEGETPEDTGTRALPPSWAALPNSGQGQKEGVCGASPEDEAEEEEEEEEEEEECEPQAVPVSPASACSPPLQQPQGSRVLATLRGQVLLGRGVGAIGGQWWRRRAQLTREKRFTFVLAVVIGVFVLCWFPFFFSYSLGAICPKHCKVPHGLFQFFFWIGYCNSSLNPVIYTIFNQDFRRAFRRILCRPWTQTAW

[2] = target: T2, Alpha-2A adrenergic receptor (Homo sapiens, UniProt P08913); experiment: Binding affinity towards Alpha-2A adrenergic receptor
T2 sequence (P08913 whole entry): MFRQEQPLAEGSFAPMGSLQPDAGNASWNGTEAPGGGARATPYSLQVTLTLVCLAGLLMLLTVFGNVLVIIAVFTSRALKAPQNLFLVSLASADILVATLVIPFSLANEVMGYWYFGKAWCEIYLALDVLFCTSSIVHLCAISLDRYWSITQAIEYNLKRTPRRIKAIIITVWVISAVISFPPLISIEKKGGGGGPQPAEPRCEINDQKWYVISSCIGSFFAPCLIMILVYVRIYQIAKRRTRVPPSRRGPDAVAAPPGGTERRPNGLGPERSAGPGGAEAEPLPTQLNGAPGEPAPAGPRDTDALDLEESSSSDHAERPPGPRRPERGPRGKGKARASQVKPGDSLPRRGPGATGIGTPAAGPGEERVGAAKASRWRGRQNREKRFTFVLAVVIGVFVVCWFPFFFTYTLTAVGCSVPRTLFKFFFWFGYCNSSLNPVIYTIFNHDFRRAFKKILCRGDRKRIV

[3] = species on record: Rattus norvegicus; experiment: Selectivity ratio of alpha1/alpha2d
[4] = target: T3, Alpha-2A adrenergic receptor (Rattus norvegicus, UniProt P22909); experiment: Binding affinity towards alpha-2D adrenergic receptor
T3 sequence (P22909 whole entry): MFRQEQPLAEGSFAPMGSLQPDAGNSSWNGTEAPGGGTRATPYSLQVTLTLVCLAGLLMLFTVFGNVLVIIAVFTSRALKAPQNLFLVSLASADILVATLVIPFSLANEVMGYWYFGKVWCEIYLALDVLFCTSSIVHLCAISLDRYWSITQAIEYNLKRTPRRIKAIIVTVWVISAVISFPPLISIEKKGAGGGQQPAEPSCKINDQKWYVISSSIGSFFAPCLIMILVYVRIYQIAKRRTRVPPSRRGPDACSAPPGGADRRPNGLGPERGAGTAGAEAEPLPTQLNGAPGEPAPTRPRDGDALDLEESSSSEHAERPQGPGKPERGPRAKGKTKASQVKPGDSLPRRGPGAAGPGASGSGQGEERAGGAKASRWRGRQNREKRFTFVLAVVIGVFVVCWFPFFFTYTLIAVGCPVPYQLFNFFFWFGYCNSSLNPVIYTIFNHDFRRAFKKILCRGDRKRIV

[5] = target: T4, Alpha-2C adrenergic receptor (Homo sapiens, UniProt P18825); experiment: Binding affinity towards alpha-2C adrenergic receptor
T4 sequence (P18825 whole entry): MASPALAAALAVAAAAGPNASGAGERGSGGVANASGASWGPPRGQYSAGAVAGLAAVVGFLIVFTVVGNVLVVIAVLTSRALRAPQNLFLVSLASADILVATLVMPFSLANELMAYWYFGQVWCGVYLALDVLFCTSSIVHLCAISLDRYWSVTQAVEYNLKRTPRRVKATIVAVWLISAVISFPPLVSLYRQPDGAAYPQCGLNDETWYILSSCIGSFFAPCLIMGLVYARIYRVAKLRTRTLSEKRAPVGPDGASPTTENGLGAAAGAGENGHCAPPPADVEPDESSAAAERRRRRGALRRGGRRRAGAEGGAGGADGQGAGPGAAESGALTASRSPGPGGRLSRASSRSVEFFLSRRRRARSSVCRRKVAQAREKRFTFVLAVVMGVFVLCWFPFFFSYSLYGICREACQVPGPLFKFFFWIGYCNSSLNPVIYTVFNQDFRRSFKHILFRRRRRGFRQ

[6] = target: T5, Alpha-2A adrenergic receptor (Homo sapiens) (UniProt P08913); experiment: Tested for Binding affinity towards Alpha-2A adrenergic receptor at 1 uM
T5 sequence (whole entry): T2 sequence (P08913 whole entry)

[7] = target: T6, Alpha-2C adrenergic receptor (Homo sapiens) (UniProt P18825); experiment: Tested for Binding affinity towards alpha-2C adrenergic receptor in rat cells at 1 uM; format: cell-based
T6 sequence (whole entry): T4 sequence (P18825 whole entry)

[8] = target: T1, Alpha-2B adrenergic receptor; experiment: Tested for Binding affinity towards alpha-2B adrenergic receptor
[9] = target: T7, Adrenergic receptor alpha-1 (Rattus norvegicus, UniProt P15823+P23944+P43140); experiment: Tested for Binding affinity towards alpha-1 adrenergic receptor; format: protein assay
T7 sequence (P15823 whole entry): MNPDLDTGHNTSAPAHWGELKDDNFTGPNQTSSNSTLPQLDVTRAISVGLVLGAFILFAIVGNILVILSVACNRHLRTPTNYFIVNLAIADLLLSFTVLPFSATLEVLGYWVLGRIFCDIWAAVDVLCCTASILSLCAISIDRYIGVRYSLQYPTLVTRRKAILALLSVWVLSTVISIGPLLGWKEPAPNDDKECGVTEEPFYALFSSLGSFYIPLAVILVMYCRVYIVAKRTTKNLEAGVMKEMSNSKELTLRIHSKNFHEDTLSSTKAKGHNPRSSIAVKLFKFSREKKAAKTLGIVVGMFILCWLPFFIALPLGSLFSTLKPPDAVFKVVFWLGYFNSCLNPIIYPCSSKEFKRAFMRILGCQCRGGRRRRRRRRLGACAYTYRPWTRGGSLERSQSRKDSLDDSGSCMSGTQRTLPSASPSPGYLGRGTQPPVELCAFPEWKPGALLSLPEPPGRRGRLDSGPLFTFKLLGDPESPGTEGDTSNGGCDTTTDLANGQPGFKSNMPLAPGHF
T7 sequence (P23944 whole entry): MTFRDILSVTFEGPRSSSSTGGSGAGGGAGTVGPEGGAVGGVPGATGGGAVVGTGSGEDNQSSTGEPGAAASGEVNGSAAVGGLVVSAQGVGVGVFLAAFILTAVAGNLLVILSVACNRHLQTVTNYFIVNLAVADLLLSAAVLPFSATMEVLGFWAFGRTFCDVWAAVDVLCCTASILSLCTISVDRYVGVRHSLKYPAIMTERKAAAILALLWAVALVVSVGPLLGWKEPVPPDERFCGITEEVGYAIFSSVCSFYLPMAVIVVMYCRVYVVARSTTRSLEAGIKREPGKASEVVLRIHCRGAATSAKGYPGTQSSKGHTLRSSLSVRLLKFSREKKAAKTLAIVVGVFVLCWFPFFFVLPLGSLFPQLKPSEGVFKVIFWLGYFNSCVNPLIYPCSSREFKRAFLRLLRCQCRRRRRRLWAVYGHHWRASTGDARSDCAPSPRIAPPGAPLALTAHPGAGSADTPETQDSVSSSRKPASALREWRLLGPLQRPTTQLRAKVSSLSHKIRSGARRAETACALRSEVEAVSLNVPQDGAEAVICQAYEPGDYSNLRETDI
T7 sequence (P43140 whole entry): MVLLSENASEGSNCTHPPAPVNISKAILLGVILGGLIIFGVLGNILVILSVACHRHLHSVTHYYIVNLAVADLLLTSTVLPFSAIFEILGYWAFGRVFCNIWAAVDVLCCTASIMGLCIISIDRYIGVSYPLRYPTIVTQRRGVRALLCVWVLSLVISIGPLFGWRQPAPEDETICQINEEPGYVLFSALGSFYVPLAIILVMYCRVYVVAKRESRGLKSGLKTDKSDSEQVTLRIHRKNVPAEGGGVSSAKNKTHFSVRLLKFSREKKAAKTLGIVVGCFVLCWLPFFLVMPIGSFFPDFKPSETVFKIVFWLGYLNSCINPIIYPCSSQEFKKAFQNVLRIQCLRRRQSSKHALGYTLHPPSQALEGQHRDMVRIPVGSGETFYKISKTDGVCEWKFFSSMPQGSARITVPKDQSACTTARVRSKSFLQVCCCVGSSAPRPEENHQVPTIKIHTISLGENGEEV

Structure (SMILES) | Ki [1] [nM] | Ki [2] [nM] | Ratio [3] | further results
C1=C(c2c[nH]cn2)c2ccsc2CC1 | 621 | 254 | 295 | –
Cc1sc(C)c2c1CCC=C2c1c[nH]cn1 | – | – | 11600 | –
Cc1sc(C)c2c1CCC=C2c1cnc[nH]1 | 100 | 25 | – | Ki [4]: 8.6 nM; Ki [5]: 26 nM
c1nc(C2CCCc3sccc32)c[nH]1 (stereo not drawn) | 99 | 27 | 196 | Ki [5]: 172 nM
c1nc(C2CCCc3ccsc32)c[nH]1 (stereo not drawn) | – | – | 260 | inhibition [6]: 87%; inhibition [7]: 54%
Cc1cccc([C@H](C)c2cnc[nH]2)c1C [DEXMEDETOMIDINE] | – | – | – | Ki [4]: 0.015 nM
C1=C(c2cnc[nH]2)c2sccc2CC1 | – | 224 | – | Ki [8]: 940 nM
C1=C(c2c[nH]cn2)c2sccc2CC1 | – | – | 133 | –
c1cc(-c2c[nH]cn2)c2ccsc2c1 | 663 | 277 | 132 | –
Cc1cccc([C@H](C)c2c[nH]cn2)c1C [DEXMEDETOMIDINE] | – | – | 333 | Ki [9]: 5 nM
Cc1sc(C)c2c1CCCC2c1c[nH]cn1 (stereo not drawn) | 141 | 68 | 17 | Ki [5]: 205 nM
